Measured values as given in patent US7759339B2, “Hydroxysteroid dehydrogenase inhibitors” (Takeda San Diego, Inc., priority 2005, dated 2010).

Biological target: T1, 11b-HSD1 (Homo sapiens, UniProt P28845)
T1 construct: made in house; host or cells: E. coli DH10b-Tir
Assay: in vitro enzymatic 11b-HSD1 dehydrogenase activity assay
Assay type: biochemical
Conditions: 11b-HSD1 dehydrogenase assay; 10 μM each of cortisol and NADP+, 50 nM enzyme, 60 minutes at room temperature; reference point for this assay

T1 sequence (P28845 24-292): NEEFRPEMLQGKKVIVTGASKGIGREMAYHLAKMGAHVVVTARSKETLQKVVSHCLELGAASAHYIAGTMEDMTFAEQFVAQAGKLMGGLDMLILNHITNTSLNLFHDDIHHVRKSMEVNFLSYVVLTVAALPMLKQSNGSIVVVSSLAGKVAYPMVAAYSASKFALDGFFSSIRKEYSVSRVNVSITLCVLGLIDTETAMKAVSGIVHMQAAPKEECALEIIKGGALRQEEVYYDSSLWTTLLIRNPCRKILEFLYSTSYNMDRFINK

IC50: 0.5 µM
Compound: CCN(CC)C(=O)Cc1csc(NS(=O)(=O)c2cccc(Cl)c2C)n1 [BVT14225]
